The values below come from patent publication US7851573B2, “Aqueous polytetrafluoroethylene emulsion, polytetrafluoroethylene fine powder and porous material obtained therefrom” (Asahi Glass Company, Limited, priority 2005, dated 2010).

The conditions of data set [1]: background art statement, no method given; cited from earlier work.
A short description of data set [2]: 1-octanol/water partition coefficient (LogPOW) by HPLC, OECD Test Guideline 117. It is filed as physicochemical. The note with it: for LogPOW: HPLC method, ODS column, acetonitrile/0.6 mass % HClO4 aq. 1/1, 40° C., calibration with C7-C10 carboxylic acids; for bioaccumulation potential / accumulation in a living organism: judged from the LogPOW value compared to APFO. The procedure: In accordance with OECD Test Guideline 117, 1-octanol/water partition coefficient (LogPOW) of a fluorinated emulsifier was measured by using HPLC (high performance liquid chromatography).
Conditions for the measurement were as follows: column: TOSOH ODS-120T column ((φ 4.6 mm×250 mm), eluent: acetonitrile/0.6 mass % of HClO4 aqueous solution=1/1 (vol/vol %), flow rate: 1.0 mL/minute, sample amount: 300 μL, column temperature: 40° C., and detection light: UV 210 nm (WO2005-42593).
HPLC was carried out on standard substances (heptanoic acid, octanoic acid, nonanoic acid and decanoic acid) having known 1-octanol/water partition coefficients, and a calibration curve was prepared from the respective elution times and octanol/water partition coefficients of the respective standard substances. Based on this calibration curve, a value of partition coefficient (LogPOW) between 1-octanol and water was calculated from the elution time by HPLC of the fluorinated emulsifier.
Further, in general, in order to judge whether or not a chemical substance is apt to be accumulated in a living organism, a testing method for measurement of a partition coefficient (LogPOW) between 1-octanol and water, is stipulated. As the testing method, in addition to “Partition Coefficient (1-octanol/water) Shake Flask Method” as stipulated in OECD test guideline 107 and in Japanese Industrial Standards Z 7260-107 (2000), a HPLC method (high-performance liquid chromatography) as stipulated and published in OECD Test Guideline 117, is used. A compound having a large partition coefficient value has a large tendency for bioaccumulation, and a compound having a small value means a small tendency for bioaccumulation. In a case where the LogPOW value is less than 3.5, it is considered proper to judge that it is not a high-concentration, and bioaccumulation is also considered to be small.

On to `N.O=C(O)C(F)(OC(F)(F)C(C(F)(F)F)C(F)(F)C(F)(F)C(F)(F)F)C(F)(F)F` (stereo not shown) [CF3CF2CF2C(CF3)CF2OCF(CF3)COONH4], for which, in data set [1], the bioaccumulation potential entry is reported as “higher bioaccumulation potential than APFO”.
With `N.O=C(O)C(F)(F)OC(F)(F)C(F)(F)OC(F)(F)C(F)(F)F` [CF3CF2OCF2CF2OCF2COONH4], in data set [2], the LogPOW stood at 3.13 and the “bioaccumulation potential / accumulation in a living organism” value was “low”.
Take `N.O=C(O)C(F)(OC(F)(F)C(F)(OC(F)(F)C(F)(F)F)C(F)(F)F)C(F)(F)F` (stereo not shown) [CF3CF2OCF(CF3)CF2OCF(CF3)COONH4]: in data set [2], the LogPOW is given as 4.03 and the “bioaccumulation potential / accumulation in a living organism” value is “high”.
As to `N.O=C(O)C(F)(F)C(F)(F)C(F)(F)C(F)(F)C(F)(F)C(F)(F)C(F)(F)F` [CF3(CF2)6COONH4, ammonium perfluorooctanoate], the bioaccumulation potential entry in data set [1] was “high”. Also, the LogPOW in data set [2] was found to be 3.67.
